# Assay results published in ChEMBL document CHEMBL1201862, “PubChem BioAssay data set” (2004).
#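 Step 1: Grow cells in 96-well plates. Step 2: Expose to compound for 48 hours at 5 concentrations. Step 3: Interpolate endpoints linearly; if unreached, use highest concentration. The concentration for 50% growth inhibition is given as GI50.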 The source made the active and inactive calls. Cut-off read from the data, not from the text of the source: active = GI50 up to about 1.1 µM and inactive = higher.
# Key:
# Assay in all cases: inhibition of tumour cell growth, NCI panel, 48 h
# 786-0 = tested on: 786-0
# A498 = tested on: A498
# A549 = tested on: A549
# ACHN = tested on: ACHN
# CAKI-1 = tested on: CAKI-1
# CCRF-CEM = tested on: CCRF-CEM
# COLO 205 = tested on: COLO 205
# DMS-273 = tested on: DMS-273
# EKVX = tested on: EKVX
# HCC 2998 = tested on: HCC 2998
# HCT-116 = tested on: HCT-116
# HCT-15 = tested on: HCT-15
# HL-60 = tested on: HL-60
# HOP-18 = tested on: HOP-18
# HOP-62 = tested on: HOP-62
# HOP-92 = tested on: HOP-92
# HT-29 = tested on: HT-29
# IGROV-1 = tested on: IGROV-1
# K562 = tested on: K562
# KM-20L2 = tested on: KM-20L2
# KM12 = tested on: KM12
# LOX IMVI = tested on: LOX IMVI
# LXFL 529 = tested on: LXFL 529
# M14 = tested on: M14
# M19-MEL = tested on: M19-MEL
# MOLT-4 = tested on: MOLT-4
# Malme-3M = tested on: Malme-3M
# NCI-H226 = tested on: NCI-H226
# NCI-H23 = tested on: NCI-H23
# NCI-H460 = tested on: NCI-H460
# NCI-H522 = tested on: NCI-H522
# OVCAR-3 = tested on: OVCAR-3
# OVCAR-4 = tested on: OVCAR-4
# OVCAR-5 = tested on: OVCAR-5
# OVCAR-8 = tested on: OVCAR-8
# RPMI-8226 = tested on: RPMI-8226
# RXF 393 = tested on: RXF 393
# RXF 631 = tested on: RXF 631
# SF-268 = tested on: SF-268
# SF-295 = tested on: SF-295
# SF-539 = tested on: SF-539
# SK-MEL-28 = tested on: SK-MEL-28
# SK-MEL-2 = tested on: SK-MEL-2
# SK-MEL-5 = tested on: SK-MEL-5
# SK-OV-3 = tested on: SK-OV-3
# SN12C = tested on: SN12C
# SNB-19 = tested on: SNB-19
# SNB-75 = tested on: SNB-75
# SNB-78 = tested on: SNB-78
# SR = tested on: SR
# SW-620 = tested on: SW-620
# TK-10 = tested on: TK-10
# U-251 = tested on: U-251
# UACC-257 = tested on: UACC-257
# UACC-62 = tested on: UACC-62
# UO-31 = tested on: UO-31
# XF498 = tested on: XF498
# DLD-1 = tested on: DLD-1
# DMS-114 = tested on: DMS-114
smiles,measurement,setting,value
NNC(=S)N/N=C(\c1nc2ccc(Cl)cc2nc1O)C(O)c1cccc([N+](=O)[O-])c1 (stereo not given),GI50,786-0,> 43 µM (inactive)
same,GI50,A498,> 100 µM (inactive)
same,GI50,A549,> 100 µM (inactive)
same,GI50,ACHN,> 100 µM (inactive)
same,GI50,CAKI-1,> 74.1 µM (inactive)
same,GI50,CCRF-CEM,> 52.5 µM (inactive)
same,GI50,COLO 205,> 42.7 µM (inactive)
same,GI50,DMS-273,> 41.1 µM (inactive)
same,GI50,EKVX,> 100 µM (inactive)
same,GI50,HCC 2998,> 100 µM (inactive)
same,GI50,HCT-116,> 31.6 µM (inactive)
same,GI50,HCT-15,> 42.1 µM
same,GI50,HL-60,> 52.2 µM (inactive)
same,GI50,HOP-18,> 100 µM (inactive)
same,GI50,HOP-62,> 38.9 µM (inactive)
same,GI50,HOP-92,> 86.3 µM (inactive)
same,GI50,HT-29,> 36.1 µM (inactive)
same,GI50,IGROV-1,> 100 µM (inactive)
same,GI50,K562,> 45.3 µM (inactive)
same,GI50,KM-20L2,> 100 µM (inactive)
same,GI50,KM12,> 100 µM (inactive)
same,GI50,LOX IMVI,> 40.5 µM (inactive)
same,GI50,LXFL 529,> 74.6 µM (inactive)
same,GI50,M14,> 53.5 µM (inactive)
same,GI50,M19-MEL,> 100 µM (inactive)
same,GI50,MOLT-4,> 100 µM (inactive)
same,GI50,Malme-3M,> 100 µM (inactive)
same,GI50,NCI-H226,> 100 µM (inactive)
same,GI50,NCI-H23,> 42.8 µM (inactive)
same,GI50,NCI-H460,> 75 µM (inactive)
same,GI50,NCI-H522,> 100 µM (inactive)
same,GI50,OVCAR-3,> 100 µM (inactive)
same,GI50,OVCAR-4,> 72.1 µM (inactive)
same,GI50,OVCAR-5,> 100 µM (inactive)
same,GI50,OVCAR-8,> 100 µM (inactive)
same,GI50,RPMI-8226,> 43.3 µM (inactive)
same,GI50,RXF 393,> 94.4 µM (inactive)
same,GI50,RXF 631,32.3 µM (inactive)
same,GI50,SF-268,> 52.1 µM (inactive)
same,GI50,SF-295,> 63.7 µM (inactive)
same,GI50,SF-539,> 31.8 µM (inactive)
same,GI50,SK-MEL-28,> 49 µM (inactive)
same,GI50,SK-MEL-2,> 100 µM (inactive)
same,GI50,SK-MEL-5,> 100 µM (inactive)
same,GI50,SK-OV-3,> 100 µM (inactive)
same,GI50,SN12C,72.3 µM (inactive)
same,GI50,SNB-19,> 100 µM (inactive)
same,GI50,SNB-75,> 100 µM (inactive)
same,GI50,SNB-78,> 100 µM (inactive)
same,GI50,SR,15.9 µM (inactive)
same,GI50,SW-620,20.9 µM (inactive)
same,GI50,TK-10,> 100 µM (inactive)
same,GI50,U-251,> 100 µM (inactive)
same,GI50,UACC-257,> 100 µM (inactive)
same,GI50,UACC-62,> 100 µM (inactive)
same,GI50,UO-31,> 100 µM (inactive)
same,GI50,XF498,> 100 µM (inactive)
Cc1cn([C@@H]2C[C@H](CO)[C@@H](O)C2)c(=O)[nH]c1=O,GI50,A549,> 100 µM (inactive)
same,GI50,ACHN,> 100 µM (inactive)
same,GI50,CCRF-CEM,> 100 µM (inactive)
same,GI50,COLO 205,> 100 µM (inactive)
same,GI50,DLD-1,> 100 µM (inactive)
same,GI50,DMS-114,> 100 µM (inactive)
same,GI50,DMS-273,> 100 µM (inactive)
same,GI50,EKVX,> 100 µM (inactive)
same,GI50,HCC 2998,> 100 µM (inactive)
same,GI50,HCT-116,> 100 µM (inactive)
same,GI50,HCT-15,> 100 µM
same,GI50,HL-60,> 100 µM (inactive)
same,GI50,HOP-18,> 100 µM (inactive)
same,GI50,HOP-62,> 100 µM (inactive)
same,GI50,HOP-92,> 100 µM (inactive)
same,GI50,HT-29,> 100 µM (inactive)
same,GI50,IGROV-1,> 100 µM (inactive)
same,GI50,K562,> 100 µM (inactive)
same,GI50,KM-20L2,> 100 µM (inactive)
same,GI50,KM12,> 100 µM (inactive)
same,GI50,LOX IMVI,> 100 µM (inactive)
same,GI50,LXFL 529,> 100 µM (inactive)
same,GI50,M14,> 100 µM (inactive)
same,GI50,M19-MEL,> 100 µM (inactive)
same,GI50,MOLT-4,> 100 µM (inactive)
same,GI50,Malme-3M,> 100 µM (inactive)
same,GI50,NCI-H226,> 100 µM (inactive)
same,GI50,NCI-H23,> 100 µM (inactive)
same,GI50,NCI-H460,> 100 µM (inactive)
same,GI50,NCI-H522,> 100 µM (inactive)
same,GI50,OVCAR-3,> 100 µM (inactive)
same,GI50,OVCAR-4,> 100 µM (inactive)
same,GI50,OVCAR-5,> 100 µM (inactive)
same,GI50,OVCAR-8,> 100 µM (inactive)
same,GI50,RXF 631,> 100 µM (inactive)
same,GI50,SF-268,> 100 µM (inactive)
same,GI50,SF-295,> 100 µM (inactive)
same,GI50,SF-539,> 100 µM (inactive)
same,GI50,SK-MEL-28,> 100 µM (inactive)
same,GI50,SK-MEL-2,> 100 µM (inactive)
same,GI50,SK-OV-3,> 100 µM (inactive)
same,GI50,SN12C,> 100 µM (inactive)
same,GI50,SNB-19,> 100 µM (inactive)
same,GI50,SNB-75,78.9 µM (inactive)
same,GI50,SNB-78,> 100 µM (inactive)
same,GI50,SW-620,> 100 µM (inactive)
same,GI50,U-251,> 100 µM (inactive)
same,GI50,UACC-257,> 100 µM (inactive)
same,GI50,UACC-62,> 100 µM (inactive)
same,GI50,UO-31,> 100 µM (inactive)
same,GI50,XF498,> 100 µM (inactive)
FC(F)(F)C1(Br)C(c2ccccc2)=C1c1ccccc1,GI50,786-0,15.9 µM (inactive)
same,GI50,A549,17.7 µM (inactive)
same,GI50,ACHN,16.8 µM (inactive)
same,GI50,CAKI-1,23.8 µM (inactive)
same,GI50,CCRF-CEM,4.43 µM (inactive)
same,GI50,COLO 205,18.8 µM (inactive)
same,GI50,DLD-1,14.7 µM (inactive)
same,GI50,DMS-114,15.2 µM (inactive)
same,GI50,DMS-273,17.9 µM (inactive)
same,GI50,EKVX,32.2 µM (inactive)
same,GI50,HCC 2998,16.9 µM (inactive)
same,GI50,HCT-116,6.7 µM (inactive)
same,GI50,HCT-15,12.3 µM
same,GI50,HL-60,7.28 µM (inactive)
same,GI50,HOP-18,16.5 µM (inactive)
same,GI50,HOP-62,18.5 µM (inactive)
same,GI50,HOP-92,16.7 µM (inactive)
same,GI50,HT-29,17.9 µM (inactive)
same,GI50,IGROV-1,24.7 µM (inactive)
same,GI50,K562,7.14 µM (inactive)
same,GI50,KM-20L2,16.1 µM (inactive)
same,GI50,KM12,15.8 µM (inactive)
same,GI50,LOX IMVI,12.9 µM (inactive)
same,GI50,LXFL 529,14.3 µM (inactive)
same,GI50,M14,17.1 µM (inactive)
same,GI50,M19-MEL,15.6 µM (inactive)
same,GI50,MOLT-4,2.7 µM (inactive)
same,GI50,Malme-3M,15.8 µM (inactive)
same,GI50,NCI-H226,17.7 µM (inactive)
same,GI50,NCI-H23,16.6 µM (inactive)
same,GI50,NCI-H460,24.7 µM (inactive)
same,GI50,OVCAR-3,15.7 µM (inactive)
same,GI50,OVCAR-4,18.8 µM (inactive)
same,GI50,OVCAR-5,20.9 µM (inactive)
same,GI50,OVCAR-8,15 µM (inactive)
same,GI50,RPMI-8226,19.3 µM (inactive)
same,GI50,RXF 393,15.5 µM (inactive)
same,GI50,RXF 631,22.6 µM (inactive)
same,GI50,SF-268,19.3 µM (inactive)
same,GI50,SF-295,13 µM (inactive)
same,GI50,SF-539,17.9 µM (inactive)
same,GI50,SK-MEL-28,18.9 µM (inactive)
same,GI50,SK-MEL-2,15.9 µM (inactive)
same,GI50,SK-MEL-5,15.4 µM (inactive)
same,GI50,SK-OV-3,45.2 µM (inactive)
same,GI50,SN12C,14 µM (inactive)
same,GI50,SNB-19,22.3 µM (inactive)
same,GI50,SNB-75,29.1 µM (inactive)
same,GI50,SNB-78,25.8 µM (inactive)
same,GI50,SR,5.11 µM (inactive)
same,GI50,SW-620,16.5 µM (inactive)
same,GI50,TK-10,22.9 µM (inactive)
same,GI50,U-251,15.6 µM (inactive)
same,GI50,UACC-257,18.5 µM (inactive)
same,GI50,UACC-62,15.8 µM (inactive)
same,GI50,UO-31,18 µM (inactive)
same,GI50,XF498,15.2 µM (inactive)
